These results are taken from the OligoGym collection.

The target in this data set is HBV. As to conditions: ASO.

Values joined by “and” are separate entries in the source; they are usually repeats but may differ in a detail not shown here. Equal values may be shown once. HELM strings list units from the 5' end as sugar, base in round brackets, then linkage (d deoxyribose, r ribose, m 2'-O-methyl, p phosphodiester). Methylation of C is not given here. [moe] = 2'-O-(2-methoxyethyl) (MOE); [cEt] = constrained ethyl (cEt); [sp] = phosphorothioate linkage

On to “RNA1{[moe](C)[sp].[moe](A)[sp].[moe](G)[sp].d(A)[sp].d(G)[sp].d(G)[sp].d(T)[sp].d(G)[sp].d(A)[sp].d(A)[sp].d(G)[sp].d(C)[sp].[moe](G)[sp].[moe](A)[sp].[moe](A)[sp].[moe](G)[sp].[moe](T)}$$$$V2.0”, for which, under “HepG2, 0.07 µM”, the target mRNA inhibition is 63% and 50%. Turning to “RNA1{[moe](C)[sp].[moe](C)[sp].[moe](A)[sp].[moe](A)[sp].[moe](T)[sp].[moe](T)[sp].d(T)[sp].d(A)[sp].d(T)[sp].d(G)[sp].d(C)[sp].d(C)[sp].d(T)[sp].d(A)[sp].d(C)[sp].[moe](A)[sp].[moe](G)}$$$$V2.0”, the target mRNA inhibition (HepG2, 0.07 µM) was 13% and 20%. For the substance “RNA1{[moe](C)[sp].[moe](C)[sp].[moe](A)[sp].[moe](A)[sp].d(T)[sp].d(T)[sp].d(T)[sp].d(A)[sp].d(T)[sp].d(G)[sp].d(C)[sp].d(C)[sp].d(T)[sp].[moe](A)[sp].[moe](C)[sp].[moe](A)}$$$$V2.0”, the target mRNA inhibition (HepG2, 0.07 µM) is 24% and 8%. Take “RNA1{[moe](C)[sp].[moe](C)[sp].[moe](A)[sp].d(A)[sp].d(T)[sp].d(T)[sp].d(T)[sp].d(A)[sp].d(T)[sp].d(G)[sp].d(C)[sp].d(C)[sp].[moe](T)[sp].[moe](A)[sp].[moe](C)[sp].[moe](A)[sp].[moe](G)}$$$$V2.0”: where the note is “HepG2, 0.07 µM”, the target mRNA inhibition was 53% and 32%.

“RNA1{[moe](C)[sp].[moe](C)[sp].[moe](A)[sp].d(C)[sp].d(T)[sp].d(G)[sp].d(A)[sp].d(A)[sp].d(C)[sp].d(A)[sp].d(A)[sp].d(A)[sp].[moe](T)[sp].[moe](G)[sp].[moe](G)[sp].[moe](C)}$$$$V2.0”: the target mRNA inhibition (HepG2, 0.07 µM) came out at 69%. As to “RNA1{[moe](C)[sp].[moe](C)[sp].[moe](G)[sp].d(C)[sp].d(A)[sp].d(G)[sp].d(T)[sp].d(A)[sp].d(T)[sp].d(G)[sp].d(G)[sp].d(A)[sp].[moe](T)[sp].[moe](C)[sp].[moe](G)[sp].[moe](G)[sp].[moe](C)}$$$$V2.0”, under “HepG2, 0.07 µM”, the target mRNA inhibition was 86% and 73%.

For “RNA1{[moe](C)[sp].[moe](C)[sp].d(G)[sp].d(C)[sp].d(A)[sp].d(G)[sp].d(T)[sp].d(A)[sp].d(T)[sp].d(G)[sp].d(G)[sp].[moe](A)[sp].[moe](T)[sp].[moe](C)[sp].[moe](G)[sp].[moe](G)}$$$$V2.0”, the target mRNA inhibition (HepG2, 0.07 µM) is 63% and 52%.

Consider “RNA1{[moe](C)[sp].[moe](G)[sp].[moe](A)[sp].[moe](A)[sp].[moe](C)[sp].d(C)[sp].d(A)[sp].d(C)[sp].d(T)[sp].d(G)[sp].d(A)[sp].d(A)[sp].d(C)[sp].d(A)[sp].[moe](A)[sp].[moe](A)[sp].[moe](T)}$$$$V2.0”, for which the target mRNA inhibition (HepG2, 0.07 µM) was 34% and 32%. For “RNA1{[moe](C)[sp].[moe](G)[sp].[moe](A)[sp].[moe](A)[sp].d(C)[sp].d(C)[sp].d(A)[sp].d(C)[sp].d(T)[sp].d(G)[sp].d(A)[sp].d(A)[sp].d(C)[sp].[moe](A)[sp].[moe](A)[sp].[moe](A)}$$$$V2.0”, the target mRNA inhibition (HepG2, 0.07 µM) was 44% and 32%. On the same count and under the same terms, next, “RNA1{[moe](C)[sp].[moe](G)[sp].[moe](C)[sp].[moe](A)[sp].d(G)[sp].d(T)[sp].d(A)[sp].d(T)[sp].d(G)[sp].d(G)[sp].d(A)[sp].d(T)[sp].d(C)[sp].[moe](G)[sp].[moe](G)[sp].[moe](C)[sp].[moe](A)}$$$$V2.0”: 81% and 67%; “RNA1{[moe](C)[sp].[moe](G)[sp].[moe](C)[sp].[moe](A)[sp].d(G)[sp].d(T)[sp].d(A)[sp].d(T)[sp].d(G)[sp].d(G)[sp].d(A)[sp].d(T)[sp].d(C)[sp].[moe](G)[sp].[moe](G)[sp].[moe](C)}$$$$V2.0”: 80% and 68%; “RNA1{[moe](C)[sp].[moe](G)[sp].[moe](T)[sp].[moe](G)[sp].d(C)[sp].d(A)[sp].d(G)[sp].d(A)[sp].d(G)[sp].d(G)[sp].d(T)[sp].d(G)[sp].d(A)[sp].[moe](A)[sp].[moe](G)[sp].[moe](C)}$$$$V2.0”: 46% and 44%. Take “RNA1{[moe](C)[sp].[moe](G)[sp].[moe](T)[sp].d(G)[sp].d(C)[sp].d(A)[sp].d(G)[sp].d(A)[sp].d(G)[sp].d(G)[sp].d(T)[sp].d(G)[sp].[moe](A)[sp].[moe](A)[sp].[moe](G)[sp].[moe](C)[sp].[moe](G)}$$$$V2.0”: the target mRNA inhibition (HepG2, 0.07 µM) was 70% and 64%. “RNA1{[moe](C)[sp].[moe](T)[sp].[moe](A)[sp].d(G)[sp].d(T)[sp].d(A)[sp].d(A)[sp].d(A)[sp].d(C)[sp].d(T)[sp].d(G)[sp].d(A)[sp].d(G)[sp].[cEt](C)[sp].[cEt](C)[sp].[cEt](A)}$$$$V2.0”: for the setting “HepG2, 0.07 µM”, the target mRNA inhibition was 71% and 79%. On the same count and under the same terms, the figure for “RNA1{[moe](C)[sp].[moe](T)[sp].[moe](G)[sp].[moe](G)[sp].[moe](A)[sp].d(G)[sp].d(C)[sp].d(C)[sp].d(A)[sp].d(C)[sp].d(C)[sp].d(A)[sp].d(G)[sp].d(C)[sp].[moe](A)[sp].[moe](G)}$$$$V2.0” is 46% and 53%. Turning to “RNA1{[moe](C)[sp].[moe](T)[sp].[moe](G)[sp].[moe](G)[sp].d(A)[sp].d(G)[sp].d(C)[sp].d(C)[sp].d(A)[sp].d(C)[sp].d(C)[sp].d(A)[sp].d(G)[sp].[moe](C)[sp].[moe](A)[sp].[moe](G)[sp].[moe](G)}$$$$V2.0”, the target mRNA inhibition runs as follows: (HepG2, 0.0092593 µM) 0%; (HepG2, 0.0277778 µM) 24%; (HepG2, 0.07 µM) 79% and 76%; (HepG2, 0.0833333 µM) 65%; (HepG2, 0.25 µM) 79%.

As to “RNA1{[moe](C)[sp].[moe](T)[sp].d(A)[sp].d(G)[sp].d(T)[sp].d(A)[sp].d(A)[sp].d(A)[sp].d(C)[sp].d(T)[sp].d(G)[sp].[moe](A)[sp].[moe](G)[sp].[moe](C)[sp].[moe](C)[sp].[moe](A)}$$$$V2.0”, the target mRNA inhibition (HepG2, 0.07 µM) is 52% and 34%. Regarding “RNA1{[moe](C)[sp].[moe](T)[sp].d(G)[sp].d(G)[sp].d(A)[sp].d(G)[sp].d(C)[sp].d(C)[sp].d(A)[sp].d(C)[sp].d(C)[sp].[moe](A)[sp].[moe](G)[sp].[moe](C)[sp].[moe](A)[sp].[moe](G)}$$$$V2.0”, the target mRNA inhibition (HepG2, 0.07 µM) was 57% and 53%. On the same count and under the same terms, the figure for “RNA1{[moe](G)[sp].[cEt](A)[sp].[cEt](A)[sp].d(C)[sp].d(A)[sp].d(A)[sp].d(A)[sp].d(T)[sp].d(G)[sp].d(G)[sp].d(C)[sp].d(A)[sp].d(C)[sp].[cEt](T)[sp].[cEt](A)[sp].[moe](G)}$$$$V2.0” is 72% and 61%. The same measure, in the same setting: next, “RNA1{[moe](G)[sp].[cEt](A)[sp].[cEt](A)[sp].d(C)[sp].d(T)[sp].d(G)[sp].d(G)[sp].d(A)[sp].d(G)[sp].d(C)[sp].d(C)[sp].d(A)[sp].d(C)[sp].[cEt](C)[sp].[cEt](A)[sp].[moe](G)}$$$$V2.0”: 65% and 51%; “RNA1{[moe](G)[sp].[cEt](A)[sp].[cEt](A)[sp].d(G)[sp].d(C)[sp].d(G)[sp].d(A)[sp].d(A)[sp].d(G)[sp].d(T)[sp].d(G)[sp].d(C)[sp].d(A)[sp].[cEt](C)[sp].[cEt](A)[sp].[moe](C)}$$$$V2.0”: 75% and 78%. In the case of “RNA1{[moe](G)[sp].[cEt](A)[sp].[cEt](T)[sp].d(G)[sp].d(A)[sp].d(G)[sp].d(G)[sp].d(C)[sp].d(A)[sp].d(T)[sp].d(A)[sp].d(G)[sp].d(C)[sp].[cEt](A)[sp].[cEt](G)[sp].[moe](C)}$$$$V2.0”, the target mRNA inhibition (HepG2, 0.07 µM) is 60% and 59%. With “RNA1{[moe](G)[sp].[cEt](A)[sp].d(G)[sp].d(G)[sp].d(T)[sp].d(G)[sp].d(A)[sp].d(A)[sp].d(G)[sp].d(C)[sp].d(G)[sp].d(A)[sp].[cEt](A)[sp].[moe](G)[sp].[cEt](T)[sp].[moe](G)}$$$$V2.0”, the target mRNA inhibition is, setting by setting: (HepG2, 0.0092593 µM) 17%; (HepG2, 0.0277778 µM) 40%; (HepG2, 0.07 µM) 75% and 82%; (HepG2, 0.0833333 µM) 65%; (HepG2, 0.25 µM) 79%. On to “RNA1{[moe](G)[sp].[cEt](A)[sp].d(G)[sp].d(T)[sp].d(T)[sp].d(C)[sp].d(C)[sp].d(G)[sp].d(C)[sp].d(A)[sp].d(G)[sp].d(T)[sp].[cEt](A)[sp].[moe](T)[sp].[cEt](G)[sp].[moe](G)}$$$$V2.0”, for which the target mRNA inhibition (HepG2, 0.07 µM) was 75% and 68%. For the substance “RNA1{[moe](G)[sp].[cEt](C)[sp].[cEt](A)[sp].d(C)[sp].d(T)[sp].d(A)[sp].d(G)[sp].d(T)[sp].d(A)[sp].d(A)[sp].d(A)[sp].d(C)[sp].d(T)[sp].[cEt](G)[sp].[cEt](A)[sp].[moe](G)}$$$$V2.0”, the target mRNA inhibition is 8% (HepG2, 0.0092593 µM); 24% (HepG2, 0.0277778 µM); 73% and 81% (HepG2, 0.07 µM); 65% (HepG2, 0.0833333 µM); 87% (HepG2, 0.25 µM).

As to “RNA1{[moe](G)[sp].[cEt](C)[sp].d(A)[sp].d(G)[sp].d(T)[sp].d(A)[sp].d(T)[sp].d(G)[sp].d(G)[sp].d(A)[sp].d(T)[sp].d(C)[sp].[cEt](G)[sp].[moe](G)[sp].[cEt](C)[sp].[moe](A)}$$$$V2.0”, the target mRNA inhibition (HepG2, 0.0092593 µM) is 25%; the target mRNA inhibition (HepG2, 0.0277778 µM) came to 44%; the target mRNA inhibition (HepG2, 0.07 µM) is 83% and 90%; the target mRNA inhibition (HepG2, 0.0833333 µM) is 77%; the target mRNA inhibition (HepG2, 0.25 µM) was 89%. Regarding “RNA1{[moe](G)[sp].[cEt](G)[sp].[cEt](C)[sp].d(A)[sp].d(G)[sp].d(A)[sp].d(G)[sp].d(G)[sp].d(T)[sp].d(G)[sp].d(A)[sp].d(A)[sp].d(A)[sp].[cEt](A)[sp].[cEt](A)[sp].[moe](G)}$$$$V2.0”, the target mRNA inhibition (HepG2, 0.07 µM) is 50% and 49%. In the case of “RNA1{[moe](G)[sp].[cEt](G)[sp].[cEt](C)[sp].d(A)[sp].d(T)[sp].d(A)[sp].d(G)[sp].d(C)[sp].d(A)[sp].d(G)[sp].d(C)[sp].d(A)[sp].d(G)[sp].[cEt](G)[sp].[cEt](A)[sp].[moe](T)}$$$$V2.0”, the target mRNA inhibition (HepG2, 0.07 µM) is 75% and 64%. In the case of “RNA1{[moe](G)[sp].[cEt](G)[sp].d(T)[sp].d(G)[sp].d(A)[sp].d(A)[sp].d(G)[sp].d(C)[sp].d(G)[sp].d(A)[sp].d(A)[sp].d(G)[sp].[cEt](T)[sp].[moe](G)[sp].[cEt](C)[sp].[moe](A)}$$$$V2.0”, the target mRNA inhibition was 22% (HepG2, 0.0092593 µM); 51% (HepG2, 0.0277778 µM); 80% and 81% (HepG2, 0.07 µM); 82% (HepG2, 0.0833333 µM); 88% (HepG2, 0.25 µM).
